Data as given in PubChem BioAssay (NCI).
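Growth conditions: 96-well plates. Treatment: test compound, 48 hours, 5 concentrations. Analysis: linear interpolation between bracketing concentrations; unreached endpoints set to highest concentration. TGI: total growth inhibition.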

How the values were obtained:
Assay in all cases: NCI-60 cell line screen, 48 h
SR leukemia = tested on: SR leukemia
T-47D breast = tested on: T-47D breast
ACHN renal = tested on: ACHN renal
HT29 colon = tested on: HT29 colon
HL-60(TB) leukemia = tested on: HL-60(TB) leukemia
OVCAR-4 ovarian = tested on: OVCAR-4 ovarian
SK-MEL-28 melanoma = tested on: SK-MEL-28 melanoma
SF-539 CNS = tested on: SF-539 CNS
COLO 205 colon = tested on: COLO 205 colon
HCT-116 colon = tested on: HCT-116 colon
786-0 renal = tested on: 786-0 renal
PC-3 prostate = tested on: PC-3 prostate
RXF 393 renal = tested on: RXF 393 renal
SK-MEL-2 melanoma = tested on: SK-MEL-2 melanoma
SW-620 colon = tested on: SW-620 colon
HCT-15 colon = tested on: HCT-15 colon
HS 578T breast = tested on: HS 578T breast
SF-268 CNS = tested on: SF-268 CNS
UO-31 renal = tested on: UO-31 renal
NCI-H226 lung = tested on: NCI-H226 lung
SN12C renal = tested on: SN12C renal
CCRF-CEM leukemia = tested on: CCRF-CEM leukemia
K-562 leukemia = tested on: K-562 leukemia
MCF7 breast = tested on: MCF7 breast
EKVX NSCLC = tested on: EKVX NSCLC
DU-145 prostate = tested on: DU-145 prostate
SK-MEL-5 melanoma = tested on: SK-MEL-5 melanoma
MOLT-4 leukemia = tested on: MOLT-4 leukemia
M14 melanoma = tested on: M14 melanoma
OVCAR-5 ovarian = tested on: OVCAR-5 ovarian
U251 CNS = tested on: U251 CNS
MDA-N = tested on: MDA-N
MDA-MB-231 breast = tested on: MDA-MB-231 breast
HOP-62 NSCLC = tested on: HOP-62 NSCLC
OVCAR-3 ovarian = tested on: OVCAR-3 ovarian
IGROV1 ovarian = tested on: IGROV1 ovarian
MALME-3M melanoma = tested on: MALME-3M melanoma
HOP-92 NSCLC = tested on: HOP-92 NSCLC
BT-549 breast = tested on: BT-549 breast
SNB-19 CNS = tested on: SNB-19 CNS
KM12 colon = tested on: KM12 colon
A549 NSCLC = tested on: A549 NSCLC
MDA-MB-435 = tested on: MDA-MB-435
A498 renal = tested on: A498 renal
UACC-62 melanoma = tested on: UACC-62 melanoma
LOX IMVI melanoma = tested on: LOX IMVI melanoma
RPMI-8226 leukemia = tested on: RPMI-8226 leukemia
NCI-H23 lung = tested on: NCI-H23 lung
NCI/ADR-RES ovarian = tested on: NCI/ADR-RES ovarian
SK-OV-3 ovarian = tested on: SK-OV-3 ovarian
SNB-75 CNS = tested on: SNB-75 CNS
HCC-2998 colon = tested on: HCC-2998 colon
TK-10 renal = tested on: TK-10 renal
CAKI-1 renal = tested on: CAKI-1 renal
UACC-257 melanoma = tested on: UACC-257 melanoma
NCI-H460 lung = tested on: NCI-H460 lung
SF-295 CNS = tested on: SF-295 CNS
OVCAR-8 ovarian = tested on: OVCAR-8 ovarian
NCI-H522 lung = tested on: NCI-H522 lung

Measured: TGI

CCOC(=O)c1ccc(NCC#CCN2CCCCC2)cc1
> 100 µM: SR leukemia | T-47D breast | ACHN renal | HT29 colon | HL-60(TB) leukemia | OVCAR-4 ovarian | SK-MEL-28 melanoma | SF-539 CNS | COLO 205 colon | HCT-116 colon | 786-0 renal | PC-3 prostate | RXF 393 renal | SK-MEL-2 melanoma | SW-620 colon | HCT-15 colon | HS 578T breast | SF-268 CNS | UO-31 renal | NCI-H226 lung | SN12C renal | CCRF-CEM leukemia | K-562 leukemia | MCF7 breast | EKVX NSCLC | DU-145 prostate | SK-MEL-5 melanoma | MOLT-4 leukemia | M14 melanoma | OVCAR-5 ovarian | U251 CNS | MDA-N | MDA-MB-231 breast | HOP-62 NSCLC | OVCAR-3 ovarian | IGROV1 ovarian | MALME-3M melanoma | HOP-92 NSCLC | BT-549 breast | SNB-19 CNS | KM12 colon | A549 NSCLC | MDA-MB-435 | A498 renal | UACC-62 melanoma | LOX IMVI melanoma | RPMI-8226 leukemia | NCI-H23 lung | NCI/ADR-RES ovarian | SK-OV-3 ovarian

N#C/C(N)=C(\C#N)NC(=O)C(=O)N/C(C#N)=C(\N)C#N
> 100 µM: SR leukemia | SNB-75 CNS | T-47D breast | HCC-2998 colon | ACHN renal | HT29 colon | TK-10 renal | OVCAR-4 ovarian | SK-MEL-28 melanoma | SF-539 CNS | CAKI-1 renal | COLO 205 colon | HCT-116 colon | 786-0 renal | PC-3 prostate | RXF 393 renal | SK-MEL-2 melanoma | SW-620 colon | UACC-257 melanoma | HCT-15 colon | HS 578T breast | SF-268 CNS | UO-31 renal | NCI-H460 lung | NCI-H226 lung | SN12C renal | CCRF-CEM leukemia | K-562 leukemia | MCF7 breast | EKVX NSCLC | DU-145 prostate | SK-MEL-5 melanoma | MOLT-4 leukemia | M14 melanoma | SF-295 CNS | OVCAR-5 ovarian | U251 CNS | OVCAR-8 ovarian | MDA-N | MDA-MB-231 breast | HOP-62 NSCLC | OVCAR-3 ovarian | IGROV1 ovarian | MALME-3M melanoma | HOP-92 NSCLC | BT-549 breast | SNB-19 CNS | KM12 colon | A549 NSCLC | NCI-H522 lung | MDA-MB-435 | A498 renal | UACC-62 melanoma | LOX IMVI melanoma | RPMI-8226 leukemia | NCI-H23 lung | NCI/ADR-RES ovarian
